Experimental findings from patent US10259812B2, “CGRP receptor antagonists” (Heptares Therapeutics Limited, priority 2015, dated 2019) are described below.

Converted amounts (≈) assume the structure as drawn.

Series [1] has as its target T1, human CGRP receptor (Homo sapiens, UniProt O60894+Q16602).
T1 construct: The human neuroblastoma cell line SK-N-MC endogenously expressing the human CGRP receptor; endogenous in cells; host or cells: SK-N-MC human neuroblastoma cells
The series can be described thus: cAMP functional assay (HTRF) in SK-N-MC cells. The series is classed as cell-based. The conditions noted are these: read-out: pKb average (converted). Here is the method: cAMP production following receptor activation was determined using the Homogeneous Time-Resolved Fluorescence (HTRF) cAMP dynamic-2 assay (Cisbio, France). The human neuroblastoma cell line SK-N-MC endogenously expressing the human CGRP receptor was seeded at a density of 12,500 cells/well in solid walled 96 well half area plates (Costar, Catalog Number 3688, Corning Life Sciences, Germany). After 16 h incubation at 37° C. media was removed and cells were incubated at 37° C. for 30 min in serum free media containing 500 μM IBMX (Tocris, Abingdon, UK, Catalog Number 2845) and increasing concentrations of test antagonist. Following this cells were challenged with an EC80 concentration of human CGRP (0.3 nM) for a further 30 min at 37° C. and then cAMP production was determined as manufacturer's instructions before plates were read on a PheraStar fluorescence plate reader (BMG LabTech, Germany). IC50 values were derived from the inhibition curve. The pIC50 values (where pIC50=−log10 IC50) were converted to a functional pKb value using a modified Cheng-Prussoff equation where Kd=agonist EC50 and L hot=agonist challenge concentration. The pKb values of certain compounds of the invention are detailed in Table 3.
Background: Time-resolved FRET reads energy transfer from a long-lived donor to a nearby acceptor.

The nature of series [2]: Thermodynamic solubility profiling. The series is classed as physicochemical. To be noted: 24 h at rt. Here is the method:
A 50 mM DMSO stock solution of test compound was prepared, and from this, a working solution of 1 mM was prepared by dilution with DMSO. The UV absorbance of working solution was scanned from 220 nm to 1000 nm to identify the wavelength maxima of test compound. The 1 mM working solution was then serially diluted in DMSO to different concentrations to determine linearity/calibration curve. […] The resulting solution was then kept on a RotoSpin shaker at 50 rpm for 24 h at rt before the solution was filtered using 0.45 micron PVDF injector filters in order to remove the insoluble fraction of the compound. Subsequently, 150 uL of the filtrate is taken for quantification using a UV spectrophotometer, acquiring the optical density of standard solutions and test compound at the same wavelength maxima. From the optical density of test compound the thermodynamic solubility is calculated using the linearity/calibration curve and expressed as micromolar (μM). Solubility profiles of certain compounds of the invention are detailed in Table 6.

In series [3] the target is T2, Human CGRP receptors (consisting of CRLR and RAMP1) (Homo sapiens, UniProt O60894+Q16602).
T2 construct: made in house; host or cells: Sf21 insect cells (baculovirus, pFastBac dual vector); membrane homogenates
T2 sequence (Q16602 23-461): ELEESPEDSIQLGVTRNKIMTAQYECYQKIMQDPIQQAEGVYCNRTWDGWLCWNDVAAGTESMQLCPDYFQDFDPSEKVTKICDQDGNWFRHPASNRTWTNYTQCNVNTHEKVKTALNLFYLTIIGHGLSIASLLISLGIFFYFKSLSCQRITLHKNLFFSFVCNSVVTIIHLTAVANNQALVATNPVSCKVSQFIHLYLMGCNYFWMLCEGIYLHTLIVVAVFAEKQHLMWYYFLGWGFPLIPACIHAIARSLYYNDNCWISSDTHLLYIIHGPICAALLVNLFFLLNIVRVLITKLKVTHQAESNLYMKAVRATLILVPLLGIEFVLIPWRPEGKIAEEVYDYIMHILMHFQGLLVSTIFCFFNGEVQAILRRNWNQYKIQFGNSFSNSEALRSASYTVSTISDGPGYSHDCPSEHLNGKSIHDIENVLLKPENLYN
T2 sequence (O60894 27-148): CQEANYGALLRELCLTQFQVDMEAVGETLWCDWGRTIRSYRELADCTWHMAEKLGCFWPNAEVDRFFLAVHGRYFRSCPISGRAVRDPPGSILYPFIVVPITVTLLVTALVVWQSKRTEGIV
The series can be described thus: Radioligand binding assay (3H-telcagepant displacement). To be noted: 0.5 nM 3H-telcagepant, Sf21 cell membranes, Ki by Cheng-Prussoff; read-out: pKi average (converted). Here is the method:
Human Calcitonin Receptor Like Receptor (CRLR) and human RAMP1 were cloned into Invitrogen's (ThermoFisher Scientific, UK) pFastBac dual expression vector. Transposition of CRLR/RAMP1 DNA was performed using Invitrogen's Bac-to-Bac Baculovirus Expression Systems. P0 baculovirus was generated by transfecting SF9 cells with bacmid DNA using Cellfectin® II transfection reagent (ThermoFisher Scientific, UK, catalog number 10362-100). Following P0 generation P1 virus was then generated ready for large scale infection and membrane preparation. Sf21 cells were grown in expression medium ESF921 (Expression Systems, USA, catalog number 96-001-01) supplemented with 10% heat-inactivated FBS and 1% Pen/Strep and were infected at a cell density of 2.5×10^6 cells/mL and an MOI of 2. Expression was carried out over 48 h in a shaking incubator set at 27° C. The cell culture was centrifuged at 2,500 rcf for 10 min at 4° C. The pellets were resuspended in cold PBS supplemented with Roche's Complete EDTA-free protease inhibitor cocktail tablets (Roche Applied Sciences, catalog number 05056489001), 1 mM PMSF and 1 mM EDTA. The resuspended cell paste was then centrifuged at 3,273 rcf for 12 min at 4° C. The supernatant was discarded and the pellet frozen at −80° C. The cell pellet from a 4 L culture was resuspended in buffer containing 50 mM Hepes pH 7.5, 150 mM NaCl, 8 Roche EDTA-free protease inhibitor cocktail tablets and 1 mM PMSF. The suspension was left stirring at rt for 1 h and then homogenised for 90 s at 9,500 rpm using a VDI 25 (VWR, USA) homogeniser. The cells were then lysed using a Microfluidizer processor M-110L Pneumatic (Microfluidics, USA). After lysis, the mixture was homogenised for 90 s at 9,500 rpm and then centrifuged at 335 rcf for 10 min. The supernatant was then further ultra-centrifuged at 42,000 rpm for 90 min. […]
Human CGRP receptors (consisting of CRLR and RAMP1) expressed in insect Sf21 cell membrane homogenates were re-suspended in the binding buffer (10 mM HEPES, pH 7.4, 5 mM MgCl2, 0.2% BSA) to a final assay concentration of […]. Saturation isotherms were determined by the addition of various concentrations of ^3H-telcagepant (Ho et al, The Lancet, 2008, 372, 2115) (in a total reaction volume of 250 μL) for 60 min at rt. […] Non-specific binding (NSB) was measured in the presence of 10 nM MK-3207 hydrochloride (CAS No. 957116-20-0). Radioactivity on the filter was counted (1 min) on a microbeta counter after addition of 50 μL of scintillation fluid. […] IC50 values were derived from the inhibition curve and the affinity constant (Ki) values were calculated using the Cheng-Prussoff equation (Cheng et al, Biochem. Pharmacol. 1973, 22, 3099-3108). […]

Series [4] is described as follows: Pharmacokinetic profiling in cynomolgus monkey. The series is classed as in vivo, male Cynomolgus Monkeys. The conditions noted are these: male, plasma, acidified saline.
Description: (§1) Following dosing by the routes above blood samples were taken at several time points (typically pre-dose, 0.083, 0.25, 0.5 1, 2, 4, 8 and 24 h) via serial tail vein bleeds (rat) or cephalic or saphenous vein (monkey) from the animal and centrifuged to separate plasma for analysis by LC/MS/MS assay. WinNonlin v6.2 statistics software (Pharsight Corporation, California, USA) was used to generate pharmacokinetic parameters using the non-compartmental model.
Series [5] can be described thus: Pharmacokinetic profiling in rat. The format is in vivo, male Sprague Dawley rats. The conditions noted are these: male, Sprague Dawley, plasma, inhaled or intranasal.
Description: Prior to IN dosing rats were anaesthetised with an intramuscular dose of 25-30 mg/kg ketamine cocktail (ketamine, xylazine hydrochloride and acepromazine maleate in saline) and the dose is introduced over 20-30 s via a polyethylene PE-10 tube inserted approximately 5 mm into the nasal cavity of the rat.
as §1
The mark [6] stands for this setting: aqueous buffer, thermodynamic from solid, pH 6 (Sodium Phosphate Buffer).
[7] abbreviates: aqueous buffer, thermodynamic from solid, pH 7.4 (PBS buffer).

T1 sequence (Q16602 23-461): as the sequence (Q16602 23-461) above
T1 sequence (O60894 27-148): as the sequence (O60894 27-148) above

Take `CN[C@H](C)C(=O)N1CCC2(CC1)CCN(C(=O)[C@@H](Cc1cc(C)c3[nH]ncc3c1)NC(=O)N1CCC3(CC1)OC(=O)Nc1ncccc13)C2` [Example 5, N-[(2R)-1-[8-(N-methyl-D-alanyl)-2,8-diazaspiro[4.5]dec-2-yl]-3-(7-methyl-1H-indazol-5-yl)-1-oxopropan-2-yl]-2′-oxo-1′,2′-dihydro-1H-spiro[piperidine-4,4′-pyrido[2,3-d][1,3]oxazine]-1-carboxamide]: the Kb in series [1] was 0.501 nM. For the same compound, the thermodynamic solubility (usually the concentration in solution at equilibrium with solid) at 24 h was found to be 1580 µM (≈ 1060 µg/mL) in series [2] (setting [6]) and 1460 µM (≈ 979 µg/mL) in series [2] (setting [7]). In addition, in series [3], the Ki was 0.1 nM.
In the case of `CN[C@H](C)C(=O)N1CCC2(CC1)CCN(C(=O)[C@@H](Cc1cc(C)c3[nH]ncc3c1)NC(=O)N1CCC(n3c(=O)[nH]c4ncccc43)CC1)C2` [Example 3, N-[(2R)-1-[8-(N-methyl-D-alanyl)-2,8-diazaspiro[4.5]dec-2-yl]-3-(7-methyl-1H-indazol-5-yl)-1-oxopropan-2-yl]-4-(2-oxo-2,3-dihydro-1H-imidazo[4,5-b]pyridin-1-yl)piperidine-1-carboxamide], the Kb in series [1] was 0.631 nM. Moreover, the figures for the solubility (thermodynamic) at 24 h in series [2] (setting [6]) and in series [2] (setting [7]) were 1430 µM (≈ 961 µg/mL) and 1550 µM (≈ 1040 µg/mL), respectively. Also, the Ki in series [3] is 0.0794 nM.
As for `CN[C@H](C)C(=O)N1CCC2(CC1)CCN(C(=O)[C@@H](Cc1cc(C)c3[nH]ncc3c1)NC(=O)N1CCC(N3Cc4ccccc4NC3=O)CC1)C2` [Example 6, N-[(2R)-1-[8-(N-methyl-D-alanyl)-2,8-diazaspiro[4.5]dec-2-yl]-3-(7-methyl-1H-indazol-5-yl)-1-oxopropan-2-yl]-4-(2-oxo-1,4-dihydroquinazolin-3(2H)-yl)piperidine-1-carboxamide], the Kb in series [1] is 0.631 nM. Further, the solubility (thermodynamic) at 24 h in series [2] (setting [6]) was 1500 µM (≈ 1020 µg/mL); in series [2] (setting [7]), 1570 µM (≈ 1070 µg/mL).
Consider `Cc1cc(C[C@@H](NC(=O)N2CCC(n3c(=O)[nH]c4ncccc43)CC2)C(=O)N2CCC3(CCN(C4CCNCC4)CC3)C2)cc2cn[nH]c12` [Example 1, N-{(2R)-3-(7-methyl-1H-indazol-5-yl)-1-oxo-1-[8-(piperidin-4-yl)-2,8-diazaspiro[4.5]dec-2-yl]propan-2-yl}-4-(2-oxo-2,3-dihydro-1H-imidazo[4,5-b]pyridin-1-yl)piperidine-1-carboxamide], for which the Kb in series [1] is 0.251 nM. The thermodynamic solubility at 24 h in series [2] (setting [6]) amounted to 1030 µM (≈ 688 µg/mL).
Take `Cc1cc(C[C@@H](NC(=O)N2CCC(N3Cc4ccccc4NC3=O)CC2)C(=O)N2CCC3(CCN(C4CCNCC4)CC3)C2)cc2cn[nH]c12` [Example 4, N-{(2R)-3-(7-methyl-1H-indazol-5-yl)-1-oxo-1-[8-(piperidin-4-yl)-2,8-diazaspiro[4.5]dec-2-yl]propan-2-yl}-4-(2-oxo-1,4-dihydroquinazolin-3(2H)-yl)piperidine-1-carboxamide]: the Kb in series [1] was 0.794 nM. Moreover, the solubility (thermodynamic) at 24 h in series [2] (setting [6]) is 1350 µM (≈ 918 µg/mL); in series [2] (setting [7]) it was 1150 µM (≈ 783 µg/mL). Moreover, in series [3], the Ki is 0.0794 nM.
With `CN[C@H](C)C(=O)N1CCC2(CC1)CCN(C(=O)[C@@H](Cc1cc(C)c3[nH]ncc3c1)NC(=O)N1CCC(c3cc4ccccc4[nH]c3=O)CC1)C2` [Example 2, N-[(2R)-1-[8-(N-methyl-D-alanyl)-2,8-diazaspiro[4.5]dec-2-yl]-3-(7-methyl-1H-indazol-5-yl)-1-oxopropan-2-yl]-4-(2-oxo-1,2-dihydroquinolin-3-yl)piperidine-1-carboxamide], in series [1], the Kb was 1.26 nM. The solubility (thermodynamic) at 24 h in series [2] (setting [6]) was found to be 1290 µM (≈ 876 µg/mL); in series [2] (setting [7]), 800 µM (≈ 545 µg/mL). For the same compound, the clearance (commonly the volume of plasma or blood freed of the substance per unit of time) in series [4] (Cynomolgus monkey iv, 1 mg/kg) is 8 mL/min/kg. For the same compound, the bioavailability (commonly dose-corrected exposure relative to a reference, in per cent) came out at 100% in series [4] (Cynomolgus monkey sc, 0.5 mg/kg) and 20% in series [5].
`NCCCC[C@H](NC(=O)[C@@H](Cc1cc(Br)c(O)c(Br)c1)NC(=O)N1CCC(N2Cc3ccccc3NC2=O)CC1)C(=O)N1CCN(c2ccncc2)CC1` [olcegepant, reference compound]: the solubility (thermodynamic) at 24 h in series [2] (pH 6 (Sodium Phosphate Buffer)) was determined as 150 µM (≈ 130 µg/mL); in series [2] (pH 7.4 (PBS buffer)), 431 µM (≈ 375 µg/mL).
For the compound `Cc1cc(C[C@@H](NC(=O)N2CCC(n3c(=O)[nH]c4ncccc43)CC2)C(=O)N2CCC3(CCN(c4ccncc4)CC3)C2)cc2cn[nH]c12` [Example 7, N-{(2R)-3-(7-methyl-1H-indazol-5-yl)-1-oxo-1-[8-(pyridin-4-yl)-2,8-diazaspiro[4.5]dec-2-yl]propan-2-yl}-4-(2-oxo-2,3-dihydro-1H-imidazo[4,5-b]pyridin-1-yl)piperidine-1-carboxamide], the Kb in series [1] is 0.398 nM. Further, the figures for the thermodynamic solubility at 24 h in series [2] (setting [6]) and in series [2] (setting [7]) were 3630 µM (≈ 2400 µg/mL) and 2160 µM (≈ 1430 µg/mL), respectively. The Ki in series [3] was 0.0501 nM.
